Results published in the NIST ThermoML archive (doi:10.1007/s10765-012-1309-7).
Numbers after ± are expanded uncertainties.

Settings: Liquid, Capillary tube (Ostwald / Ubbelohde) method

CCF [fluoroethane]
Settings	kinematic viscosity [m2/s]
233.15 K	2.93e-07 ± 9.1e-09
238.15 K	2.81e-07 ± 8.7e-09
243.15 K	2.7e-07 ± 8.4e-09
248.11 K	2.58e-07 ± 8e-09
253.15 K	2.46e-07 ± 7.7e-09
258.12 K	2.37e-07 ± 7.4e-09
263.17 K	2.28e-07 ± 7.1e-09
268.16 K	2.17e-07 ± 6.8e-09
273.16 K	2.09e-07 ± 6.5e-09
278.16 K	2.01e-07 ± 6.3e-09
283.15 K	1.92e-07 ± 6e-09
288.13 K	1.85e-07 ± 5.8e-09
293.18 K	1.78e-07 ± 5.6e-09
298.15 K	1.72e-07 ± 5.4e-09
303.12 K	1.66e-07 ± 5.2e-09
308.11 K	1.62e-07 ± 5.1e-09
313.15 K	1.54e-07 ± 4.9e-09
318.15 K	1.51e-07 ± 4.8e-09
320.16 K	1.49e-07 ± 4.7e-09
328.16 K	1.41e-07 ± 4.5e-09
333.15 K	1.37e-07 ± 4.3e-09
338.15 K	1.31e-07 ± 4.2e-09
343.13 K	1.28e-07 ± 4.1e-09
348.15 K	1.23e-07 ± 3.9e-09
353.17 K	1.21e-07 ± 3.8e-09
355.16 K	1.2e-07 ± 3.8e-09
360.16 K	1.16e-07 ± 3.7e-09
366.08 K	1.12e-07 ± 3.6e-09
371.36 K	1.08e-07 ± 3.5e-09

CC(C)C [2-methylpropane]
Settings	kinematic viscosity [m2/s]
285.13 K	3.1e-07 ± 9.6e-09
290.11 K	2.95e-07 ± 9.1e-09
295.11 K	2.87e-07 ± 8.9e-09
300.41 K	2.72e-07 ± 8.4e-09
303.37 K	2.67e-07 ± 8.3e-09
309.08 K	2.55e-07 ± 7.9e-09
313.12 K	2.46e-07 ± 7.6e-09
315.07 K	2.42e-07 ± 7.5e-09
318.2 K	2.38e-07 ± 7.4e-09
320.12 K	2.35e-07 ± 7.3e-09
323.83 K	2.25e-07 ± 7e-09
326.11 K	2.21e-07 ± 6.9e-09
330.11 K	2.14e-07 ± 6.7e-09
333.14 K	2.07e-07 ± 6.4e-09
335.12 K	2.09e-07 ± 6.5e-09
340.12 K	1.97e-07 ± 6.2e-09
340.15 K	1.97e-07 ± 6.2e-09
345.15 K	1.9e-07 ± 5.9e-09
